What was measured:
[1] = Antitumor activity against KBv200 cells by MTT assay; type: functional, cell-based; conditions: Homo sapiens
KB = assay: Antitumor activity against KB cells by MTT assay; type: functional, cell-based; conditions: Homo sapiens

IC50 (KB) [µM]	Structure (SMILES)	IC50 [1] [µM]
> 200	C=C=CCBr	> 200
48.1	C=C=CCOc1ccc(/C=C/C(=O)NC2(C(=O)OC)CC2)cc1	77
> 200	COC(=O)/C=C/c1ccc(O)c(OC)c1	> 200
29.4	C=C=CCOc1ccc(/C=C/C(=O)OC)cc1O	23.4
> 200	O=C(/C=C/c1ccc(O)c(O)c1)OC1C[C@@](O)(C(=O)O)C[C@H](O)[C@@H]1O (stereo partly drawn)	> 200
74.5	C=C=CCOc1ccc(CO)cc1 [TERRICOLLENE C]	76.6
27.6	C=C=CCOc1ccc(/C=C/C(=O)OC)cc1	19
17.4	C=C=CCOc1ccc(/C=C/C(=O)OC)cc1OC	18.3
53.1	C=C=CCOC(=O)[C@]1(O)CC(OC(=O)/C=C/c2ccc(OCC=C=C)c(O)c2)[C@@H](O)[C@@H](O)C1 (stereo partly drawn)	35.7
71.5	C=C=CCOc1ccc(/C=C/C(=O)O)cc1	52.4
22.5	C=C=CCOc1ccc(C(=O)OC)cc1	20.9
> 200	OCc1ccc(O)cc1 [PARAHYDROXYBENZYL ALCOHOL]	> 200
34.6	C=C=CCOc1ccc(COc2ccc(/C=C/C(=O)OC)cc2OC)cc1	30.3
75.4	C=C=CCOc1ccc(COc2ccc(C(=O)OC)cc2)cc1	52.9
> 200	COC(=O)c1ccc(O)cc1 [METHYLPARABEN]	> 200
135	COC(=O)C1(N)CC1	> 200
40.6	C=C=CCOc1ccc(C(=O)O)cc1	49.6
> 200	COC(=O)/C=C/c1ccc(O)c(O)c1 [METHYLCAFFEATE]	> 200
123	COC(=O)/C=C/c1ccc(O)cc1 [METHYL P-HYDROXYCINNAMATE]	101
48.8	C=C=CCOc1ccc(COc2ccc(/C=C/C(=O)OC)cc2)cc1	55.5
> 200	C=C=CCO	> 200
> 200	O=C(O)c1ccc(O)cc1 [PARABEN]	> 200
> 200	COC(=O)C1(NC(=O)/C=C/c2ccc(O)cc2)CC1	> 200
> 200	O=C(O)/C=C/c1ccc(O)cc1 [COUMARIC ACID]	> 200
